Measurements as given in ChEMBL document CHEMBL1125055, “Tricyclic heteroaromatic systems. [1]benzopyranopyrrol-4-ones and [1]benzopyrano-1,2,3-triazol-4-ones as benzodiazepine receptor ligands. Synthesis and structure-activity relationships” (J Med Chem, 1990).

molecular target: GABA-A receptor; anion channel (Bos taurus) (UniProt P10063+P08220+P20237+P08219+P10064+P22300); test: Percent inhibition of [3H]flunitrazepam binding to GABA-A Benzodiazepine receptor of bovine brain membranes at 34 uM; assay type: cell membranes

Row | Compound | inhibition [%]
1 | O=c1oc2ccccc2c2c1cc(-c1ccccc1)n2-c1ccccc1 | 30
2 | O=c1oc2ccccc2c2c1nnn2-c1ccccc1 | 0
3 | Cc1cccc(-n2nnc3c(=O)oc4ccccc4c32)c1 | 18

molecular target: GABA-A receptor; anion channel; test: Affinity to displace [3H]flunitrazepam from Benzodiazepine receptor in bovine brain membrane; assay type: cell membranes

Row | Compound | IC50 [nM]
4 | Cc1ccc(-n2cc(-c3ccccc3)c3c(=O)oc4ccccc4c32)cc1 | 172
5 | COC(=O)c1cc2c(cn1)[nH]c1ccccc12 [BETA-CCM] | 16
6 | Cn1c(=O)c2c(-c3ccccc3)nn(-c3cccc(Cl)c3)c2c2ccccc21 | 70
7 | O=c1oc2ccccc2c2c1c(-c1ccccc1)cn2-c1cccc(Cl)c1 | 10
8 | O=c1oc2ccccc2c2c1c(-c1ccccc1)cn2-c1ccc(Cl)cc1 | 40
9 | Cc1cccc(-n2cc(-c3ccccc3)c3c(=O)oc4ccccc4c32)c1 | 25
10 | O=c1oc2ccccc2c2c1c(-c1ccccc1)cn2-c1ccccc1 | 65
11 | Cc1nn(-c2cccc(Br)c2)c2c1c(O)nc1ccccc12 | 2500
12 | Cc1cccc(-n2nc(-c3ccccc3)c3c(=O)n(C)c4ccccc4c32)c1 | 90
13 | Cc1cc(C)cc(-n2cc(-c3ccccc3)c3c(=O)oc4ccccc4c32)c1 | 8.6
14 | COc1ccc(-n2cc(-c3ccccc3)c3c(=O)oc4ccccc4c32)cc1 | 62
15 | COc1cccc(-n2nc(C)c3c(O)nc4ccccc4c32)c1 | 7500
16 | CN1C(=O)CN=C(c2ccccc2)c2cc(Cl)ccc21 [DIAZEPAM] | 13
17 | COc1cccc(-n2cc(-c3ccccc3)c3c(=O)oc4ccccc4c32)c1 | 48
